Assays:
Assay type in all cases: cell-based, mouse
[1] = tested on: aryl hydrocarbon receptor (AhR); assay: DRESSA method: SEAP protein activity in conditioned medium of HeDS cells; details: for induction of SEAP protein activity compared with DMSO control: HeDS cells stimulated by 1 μM
Procedure: Each cell clump is treated with trypsin to be removed, transferred to a 96-well culture plate every two wells, and cultured for one week continuously (S5). After the cells become confluent, the culture medium of each well is exchanged with 100 μl of α-MEM containing 1% FBS, and the cells are cultured for 24 hours in the presence or absence of 10 pM TCDD. Then, using 5 μl of the conditioned medium, a predetermined SEAP assay is performed to establish HeDS cells that react with a low concentration of dioxin with the highest sensitivity, and the cells are used for a dioxins sensing bioassay (S6). In this specification, the bioassay method is referred to as DRE-based Sensing of dioxin via Secreted Alkaline phosphatase (hereinafter, abbreviated as the DRESSA method).
Further, AhR14 forms a complex with Arnt15 that is a coactivator, enters the nuclear, and is combined with MMTV-DRE11 to activate. As a result, transcription of downstream SEAP gene 12 is promoted, messenger RNA 16 is produced and translated to protein 18 with ribosome 17, and the protein is promptly secreted outside the cell as a SEAP protein. Accordingly, by measuring the activity of the SEAP protein in the conditioned medium, it is possible to determine a level of dioxins to which the cells are exposed. First, HeDS cells with a concentration of 2×10^4/well are seeded in each well of a 96-well culture plate. As a culture medium, 100 μl of A-MEM containing […] is filled into each well (S1). After the cells are cultured for 24 hours to be fixed to the bottom of each well, the culture medium is exchanged, and 1 μl of a liquid sample containing TCDD is added (S2). After culturing for 24 hours, the conditioned medium is sampled every 5 μl (S3), and the SEAP protein activity is measured by procedures as described below.
(§1) The SEAP protein activity in the conditioned medium is determined as described below. To 5 μl of the conditioned medium is added 15 μl of buffer, the resultant is incubated at 65° C. for 30 minutes, and endogenous alkaline phosphatase activity is inactivated. Added further is 20 μl of buffer containing L-homoarginine that is an inhibitor of endogenous alkaline phosphatase, and the resultant is kept standing for 5 minutes. Then, 15 μl of substrate CSPD is added thereto, the resultant is kept standing at a dark place for 30 minutes, and the degree of chemical emission is measured by a luminometer.

[2] = tested on: aryl hydrocarbon receptor (AhR); assay: fast DRESSA method: floating HeDS cells, SEAP protein activity in conditioned medium
Procedure: as §1
In order to perform the above-mentioned DRESSA method easily and economically in a short time, it is possible to simplify the sensing procedures as described above, as shown in FIG. 1a. In other words, 50 μl of the culture medium containing 1 μl of sample is filled into each well of a 96-well culture plate, and immediately, HeDS cells floated in the culture medium are added (total 100 μl) (S1).
The conditioned medium is sampled three to four hours later (S2), and the SEAP protein activity is measured (S3). By using this scheme, it is possible to sense 1 pM of TCDD regarded as the sensing limit of the current method within four to five hours. Hereinafter, this method is referred to as a fast DRESSA method. The fast DRESSA method has no difference in sensing sensitivity from the DRESSA method.

[3] = tested on: aryl hydrocarbon receptor (AhR); assay: SEAP reporter plasmid comparison of sensor sequences (DRE, MMTV-DRE, MMTV) in Hepa-1c1c7 cells stimulated by TCDD
Procedure: SEAP reporter plasmids having MMTV-DRE or only DRE as a sensor sequence were prepared, and each of the plasmids was gene-introduced to a Hepa-1c1c7 cell. In addition, details of gene introduction will be described later. The cells were stimulated by TCDD, and increases in SEAP activity were compared. In the cell to which was introduced the SEAP reporter plasmid only having DRE as a sensor sequence, the SEAP activity increased by 4.5 times by the stimulus of TCDD.
In contrast thereto, in the cell (Hepa 1c1c7-DRE-SEAP cell, hereinafter, referred to as an HeDS cell) to which was introduced the SEAP reporter plasmid having MMTV-DRE as a sensor sequence, the SEAP activity increased by 43.2 times by the stimulus of TCDD. […] This means that the sequence of MMTV strongly amplifies the response of DRE to dioxin. The high reactivity of MMTV-DRE enables a fast assay with low cost.
as §1

Cc1ccc2cc3c(ccc4ccccc43)c3c2c1CC3 [3-MC, 3-methylcholanthrene]
induction of SEAP protein activity compared with DMSO control [1]: remarkable induction

c1ccc2c(c1)cc1ccc3cccc4ccc2c1c34 [B[a]P, benzo[a]pyrene]
induction of SEAP protein activity compared with DMSO control [1]: remarkable induction

O=c1cc(-c2ccccc2)oc2ccc3ccccc3c12 [βNF, β-naphthoflavone]
induction of SEAP protein activity compared with DMSO control [1]: remarkable induction

Clc1cc2c(cc1Cl)Oc1cc(Cl)c(Cl)cc1O2 [TCDD, 2,3,7,8-tetrachlorodibenzo-p-dioxin]
time after addition at which significant increases in SEAP protein activity were already observed ([2]; 6 pM TCDD): three | time after addition at which significant increases in SEAP protein activity were already observed ([2]; 1 nM TCDD): three | concentration of TCDD possible to sense ([2]; within four to five hours): 1 pM | increase in SEAP activity by the stimulus of TCDD ([3]; HeDS cell: SEAP reporter plasmid having MMTV-DRE as sensor sequence): 43.2 times | increase in SEAP activity by the stimulus of TCDD ([3]; Hepa-1c1c7 cell with SEAP reporter plasmid only having DRE as sensor sequence): 4.5 times | increase in SEAP activity by the stimulus of TCDD ([3]; cell with SEAP reporter plasmid only having MMTV as sensor sequence): did not increase | time after addition at which significant increases in SEAP protein activity are observed ([1]; 6 pM TCDD, DMSO control, traced up to 10 hours): four | sensing with a reduced number of cells ([1]; 1 nM TCDD, 50 cells in one well of a 96-well plate): can be sensed sufficiently | concentration of TCDD possible to sense ([1]; 5,000 HeDS cells): 0.5 pM | concentration at which significant increases in SEAP protein activity were already observed ([1]; HeDS cells exposed to 0 to 1 pM TCDD): 0.25 pM | concentration up to which SEAP protein activity increases dependent on the concentration ([1]; HeDS cells, culture medium): up to 100 pM | time for which increases in SEAP protein activity continued before reaching equilibrium ([1]; TCDD stimulation, traced up to 72 hours): 48 h
